Laboratory results published in paper PMC6572135, “N-Methyl-D-glucamine–Calix[4]resorcinarene Conjugates: Self-Assembly and Biological Properties” (Molecules, 2019).
Values after ≈ are worked out from the molar mass of the structure shown.

Experiments:
[1] = Hemolytic activity; format: cell-based; conditions: human erythrocyte suspension, human erythrocytes, 37 °C
Method: The hemolytic activity of the compounds was estimated by comparing the optical density of a solution containing a compound being tested and the blood with the optical density of the blood upon 100% hemolysis. A 10% suspension of human erythrocytes was used as an object of investigation; an erythrocytic mass with heparin was washed three times with a physiologic saline (0.9% NaCl) solution, centrifuged for 10 min at 800× g, and resuspended in the physiologic saline (0.9% NaCl) solution to a concentration of 10%. The concentrations of the compounds that corresponded to the MIC for the bacterial test strains were prepared in a physiologic saline (0.9% NaCl) solution (supplemented with 5% DMSO), and 4.5 mL of a compound at the corresponding dilution was added to 0.5 mL of a 10% suspension of erythrocytes. Samples were incubated for 1 h at 37 °C and centrifuged for 10 min at 2000× g. The release of hemoglobin was controlled by measuring the optical density of the supernatant on an AP-101 digital photoelectrocolorimeter (Apel, Kawaguchi, Japan) at 540 nm. Simultaneously, control samples were prepared: controls for zero hemolysis (blank): 0.5 mL of a 10% suspension of erythrocytes was added to a physiologic saline (0.9% NaCl) solution; 100% hemolysis: 0.5 mL of a 10% suspension of erythrocytes was added to 4.5 mL of distilled water. The experiments were repeated three times and data are presented as the mean ± standard deviation.

[2] = test system: S. aureus 209P; assay: Bactericidal activity (MBC); format: cell-based; conditions: Staphylococcus aureus, read-out: Minimal Bactericidal Concentration (MBC)
Method: (§1) In vitro bacteriostatic and fungistatic activities of the macrocycles were evaluated against pathogenic representatives of Gram-positive bacteria (Staphylococcus aureus 209p, Bacillus cereus 8035), Gram-negative bacteria (Pseudomonas aeruginosa 9027, Escherichia coli F-50), and yeast (Trichophyton mentagrophytes var. gypseum 1773, Aspergillus niger BKMF-1119, Candida albicans 885–653). Minimal inhibitory concentrations (MICs) were estimated by conventional dilution methods for bacteria and fungi. The antibacterial and antifungal assays were performed in Hottinger broth (HiMe-dia Laboratories Pvt. Ltd. Mumbai, India) and Sabouraud dextrose broth (HiMedia Laboratories Pvt. Ltd.) (bacteria 3 × 10^5 cfu/mL and yeast 2 × 10^4 cfu/mL). The bactericidal and fungicidal activities were determined as described earlier. The tests were repeated three times.

[3] = test system: B. cereus 8035; assay: Bactericidal activity (MBC); format: cell-based; conditions: Bacillus cereus; B. cereus 8035, bactericidal activity; read-out: Minimal Bactericidal Concentration (MBC)
Method: as §1

[4] = Tensiometry (surface tension, Du-Noüy ring), critical aggregation concentration; format: physicochemical; conditions: 25 °C
Method: In the next step of the study of GCR self-assembly the tensiometry method was used. Surface tension decreases with increasing GCR-1 concentration, but above the CAC (15 mM) the slope angle of the dependence changes (Figure 2). […] Concentration point of 15 mM, at which occurs inflection of surface tension dependence, corresponds to CAC that is in good agreement with conductometric value. The tensiometric CAC value of GCR-2 (3.3 mM) is slightly different from the conductometric value (7.9 mM, Table 1). The tensiometry method is well known to fix the changes of the mutual disposition of the molecules at the water–air interface, whereas conductometry measures the number and mobility of ions in the bulk solution. The CAC values obtained for GCR-2 are lower compared to those for GCR-1. The improved ability to aggregation of GCR-2 in comparison with GCR-1 may be due higher hydrophobicity of GCR-2. The relations between the surface tension and the concentration of macrocycle solution were illustrated in Figure 8. […] The first inflection point was determined after a concentration of 10 mM, which can be correlated with the CAC value in the aqueous environment. […] The turning point of the tensiometric curve for GCR-2 can be determined as 3.3 mM that is same as in water. […]

Molecule CC1c2cc(c(O)c(CN(C)C[C@@H](O)[C@H](O)[C@@H](O)[C@@H](O)CO)c2O)C(C)c2cc(c(O)c(CN(C)C[C@@H](O)[C@H](O)[C@@H](O)[C@@H](O)CO)c2O)C(C)c2cc(c(O)c(CN(C)C[C@@H](O)[C@H](O)[C@@H](O)[C@@H](O)CO)c2O)C(C)c2cc1c(O)c(CN(C)C[C@@H](O)[C@H](O)[C@@H](O)[C@@H](O)CO)c2O (stereo partly drawn) [GCR-2, N-methyl-D-glucaminemethyl methylcalix[4]resorcinarene] has a hemolysis at 1 h, 0.125 mM ([1]; concentration 0.125 mM) of 21.3 ± 1.7%, a hemolysis at 1 h, 0.25 mM ([1]; concentration 0.25 mM) of 31.6 ± 2.7% and a hemolysis at 1 h, 0.5 mM ([1]; concentration 0.50 mM) of 38.1 ± 3.4%. The MBC [2] was 1000 ± 80 µM (≈ 1370 µg/mL), the MBC [3] was > 1000 µM and the “First inflection / turning point of the tensiometric curve” value ([4]; 50% DMSO–50% water) was 3.3 mM. For the same molecule, the “CAC, tensiometry” value ([4]; water solution, GCR-2 in the presence of two-fold excess of MG) was 3.3 mM.
